Experimental data as given in US9550741B2, “Benzoisothiazole compounds and methods of treating schizophrenia” (SHANGHAI INSTITUTE OF PHARMACEUTICAL INDUSTRY, priority 2013, dated 2017).
pKi: −log10 of the molar value. Like-named read-outs stand apart in the source and are kept apart here.

Legend:
[1] = system: Apo.-induced schizophrenic mouse model; assay: Apomorphine-induced schizophrenic mouse model, stereotyped behaviors; format: in vivo; conditions: for ED50: Mus musculus, read-out: ED50, inhibition of the total stereotyped behaviors; for Score of stereotyped behaviors: total score in 60 min, mean ± SD
Method: The drugs are administered by gastric gavage. The model control group is given the same volume of solvent by gastric gavage.
Total score of the stereotyped behaviors of the mice such as tail erection and wall-climbing in the 60 minutes is calculated.
The clinical response symptoms of the animals shall be recorded during the administration and test procedures.

[2] = system: MK-801-induced schizophrenic mouse model; assay: MK-801-induced schizophrenic mouse model, open-field movement; conditions: for ED50: Mus musculus, po, read-out: ED50, total distance of the open-field movement; for Total distance of the spontaneous movement (cm): 60 min, mean ± SD
[3] = in vivo; conditions: mouse
Method: Observation of general symptoms: the animals are observed at about 0.5, 1, 2, 4, and 6 hours respectively, after the first administration on the first day, and observed twice a day, one in the morning and one in the afternoon, on the second to the sixth day. Observed objects include but are not limited to general condition, behavior activity, gait and posture, eye, mouth, nose, gastrointestinal tract, skin and hair, and genitourinary tract. • (2) Statistical Analysis
Body weight is expressed in mean±SD. Comparison among groups is carried out with Levene's test and one-way ANOVA, followed by Dunnet t test if there exists a difference.
(1) The acute toxicity of the representative compounds of □, □, □ classes is investigated with the method of Example 81.

[4] = target: human recombinant D3 receptor (Homo sapiens (Human), UniProt P35462); assay: Dopamine D3 receptor binding test; conditions: read-out: Affinity of the compound to D3 receptor, Ki value
Sequence of human recombinant D3 receptor (P35462 whole entry): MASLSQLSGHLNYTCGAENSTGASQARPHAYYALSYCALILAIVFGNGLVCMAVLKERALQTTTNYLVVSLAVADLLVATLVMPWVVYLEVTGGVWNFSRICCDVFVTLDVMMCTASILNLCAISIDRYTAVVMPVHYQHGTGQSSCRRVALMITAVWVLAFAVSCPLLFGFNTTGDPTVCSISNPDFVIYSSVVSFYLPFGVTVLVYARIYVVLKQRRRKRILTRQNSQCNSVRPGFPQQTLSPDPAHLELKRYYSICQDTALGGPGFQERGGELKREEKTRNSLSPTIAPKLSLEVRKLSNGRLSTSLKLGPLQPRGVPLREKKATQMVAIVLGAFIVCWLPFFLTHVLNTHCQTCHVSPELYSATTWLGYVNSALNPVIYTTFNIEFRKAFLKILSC
Method: With [^3H]methyl-spiperone (0.3 nM) as the ligand and (+)-butaclamol (10 LM) for determining non-specific binding, binding tests are carried out on human recombinant D3 receptor (expressed in CHO cells).

[5] = system: Salmonella typhimurium TA98 and TA100; assay: Bacterial reverse mutation test (Ames); conditions: TA98 and TA100, with or without S9
[6] = target: D2 receptor (Homo sapiens (Human), UniProt P14416); assay: Dopamine D2 receptor binding test; conditions: read-out: Affinity of the compound to D2 receptor, Ki value
Sequence of D2 receptor (P14416 whole entry): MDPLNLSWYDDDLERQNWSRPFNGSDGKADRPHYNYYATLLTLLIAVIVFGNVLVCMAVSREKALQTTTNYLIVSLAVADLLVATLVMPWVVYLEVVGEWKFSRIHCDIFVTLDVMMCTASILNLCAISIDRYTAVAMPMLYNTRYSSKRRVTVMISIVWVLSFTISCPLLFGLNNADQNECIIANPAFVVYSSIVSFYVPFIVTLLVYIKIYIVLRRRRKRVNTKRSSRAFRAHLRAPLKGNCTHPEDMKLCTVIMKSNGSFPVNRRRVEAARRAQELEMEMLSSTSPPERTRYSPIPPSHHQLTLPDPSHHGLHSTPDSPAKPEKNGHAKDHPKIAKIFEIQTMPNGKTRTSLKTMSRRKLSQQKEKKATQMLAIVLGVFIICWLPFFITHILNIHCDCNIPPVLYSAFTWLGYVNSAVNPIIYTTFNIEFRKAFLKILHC
Description: This experiment utilizes the plasmid vector containing the gene of D2 receptor protein for transfecting HEK293 cells by calcium phosphate transfection method.
(§1) Beckman LS-6500 multifunction liquid scintillation counter.

[7] = target: 5-HT2A receptor (Homo sapiens (Human), UniProt P28223); assay: 5-HT2A receptor binding test; conditions: read-out: Affinity of the compound to 5-HT2A receptor, Ki value
Sequence of 5-HT2A receptor (P28223 whole entry): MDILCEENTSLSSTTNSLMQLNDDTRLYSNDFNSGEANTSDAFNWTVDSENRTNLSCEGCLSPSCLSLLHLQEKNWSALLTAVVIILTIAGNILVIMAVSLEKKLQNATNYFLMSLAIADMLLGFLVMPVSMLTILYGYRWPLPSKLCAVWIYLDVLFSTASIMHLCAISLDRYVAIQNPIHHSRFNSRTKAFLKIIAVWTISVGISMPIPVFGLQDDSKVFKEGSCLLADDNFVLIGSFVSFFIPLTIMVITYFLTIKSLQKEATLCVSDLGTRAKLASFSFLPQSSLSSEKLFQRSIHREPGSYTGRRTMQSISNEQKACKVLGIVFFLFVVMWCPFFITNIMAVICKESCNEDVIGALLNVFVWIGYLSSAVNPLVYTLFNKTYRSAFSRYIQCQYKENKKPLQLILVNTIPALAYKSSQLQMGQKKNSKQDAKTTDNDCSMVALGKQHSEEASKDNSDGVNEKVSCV
Description: as §1

[8] = target: 5-HT1A receptor (Homo sapiens (Human), UniProt P08908); assay: 5-HT1A receptor binding test; conditions: read-out: Affinity of the compound to 5-HT1A receptor, Ki value
Sequence of 5-HT1A receptor (P08908 whole entry): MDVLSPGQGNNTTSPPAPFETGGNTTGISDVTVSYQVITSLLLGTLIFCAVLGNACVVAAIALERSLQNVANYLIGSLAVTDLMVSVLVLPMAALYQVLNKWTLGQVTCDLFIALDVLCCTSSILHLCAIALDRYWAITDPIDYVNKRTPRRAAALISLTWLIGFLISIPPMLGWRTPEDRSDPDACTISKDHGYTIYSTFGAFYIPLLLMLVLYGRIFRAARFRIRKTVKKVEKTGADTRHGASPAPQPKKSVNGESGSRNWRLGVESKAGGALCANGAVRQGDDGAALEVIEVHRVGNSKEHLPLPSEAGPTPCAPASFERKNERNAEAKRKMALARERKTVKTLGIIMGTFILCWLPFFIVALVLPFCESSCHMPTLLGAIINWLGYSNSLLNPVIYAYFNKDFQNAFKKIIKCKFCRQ
Method: Cells: HEK-293 cells stably expressing 5-HT1A receptors as obtained by gene recombination are cultured for 3-5 days in cell culture medium DMEM supplemented with 10% serum.
Competitive inhibition ratio of each compound at the concentration of 10 μmol/L to inhibit the binding of [^3H]8-OH-DPAT to 5-HT1A receptor is determined for primary screening.
The components are mixed to homogeneity, and then the above tubes are transferred to water bath at 30° C. (1 h), removed into ice bath immediately, and suction filtered on Harvest (with ice cold Tris eluate for 5 times).

[9] = single oral administration, Apo.-induced model
[10] = [3H]Spiperone, D2 receptor expressed in HEK293 cells
[11] = [3H]-Ketanserin, 5-HT2A receptor expressed in HEK293 cells
[12] = [3H]8-OH-DPAT, HEK-293 cells expressing 5-HT1A receptors
[13] = [3H]methyl-spiperone 0.3 nM, human recombinant D3 receptor in CHO cells
[14] = single oral administration, ICR mice, read-out: LD50

Structure (SMILES)	ED50 [1, 9] [mg/kg]	ED50 [2] [mg/kg]	LD50 at 6 days ([3]; ICR, po) [mg/kg]	pKi [4]	Ames test result (colonies with reverse mutations) [5]	pKi [6, 10]	pKi [7, 11]	pKi [8, 12]	pKi [4, 13]	other results
O=C(N[C@H]1CC[C@H](CCN2CCN(c3nsc4ccccc34)CC2)CC1)c1cc2ccccc2[nH]1 [Compound I-4, trans-N-(4-(2-(4-(benzo[d]isothiazol-3-yl)piperazin-1-yl)ethyl)cyclohexyl)-1H-indolyl-2-carboxamide]	0.37	0.073	> 2000	10.54	negative	9.37				
O=C(N[C@H]1CC[C@H](CCN2CCN(c3nsc4ccccc34)CC2)CC1)c1cc2ccccc2s1 [Compound I-6, trans-N-(4-(2-(4-(benzo[d]isothiazol-3-yl)piperazin-1-yl)ethyl)cyclohexyl)benzo[b]thienyl-2-carboxamide]	0.23	0.038	> 2000	10.46	negative	8.74				pKi [7]: 9.14; effect on stereotyped behaviors (in words) ([1]; apomorphine mouse model, oral): greater improvement ratio than RGH-188; Score of stereotyped behaviors ([1]; single oral administration 0.12 mg/kg): 23.02 ± 8.32; Score of stereotyped behaviors ([1]; single oral administration 0.40 mg/kg): 4.01 ± 3.65; Score of stereotyped behaviors ([1]; single oral administration 0.90 mg/kg): 0.71 ± 0.94; effect on the open-field movement (in words) ([2]; MK-801 mouse model, oral): greater improvement ratio than RGH-188; Total distance of the spontaneous movement (cm) ([2]; single oral administration 0.02 mg/kg): 19482.27 ± 11047.75 cm; Total distance of the spontaneous movement (cm) ([2]; single oral administration 0.03 mg/kg): 17280.33 ± 9364.31 cm; Total distance of the spontaneous movement (cm) ([2]; single oral administration 0.05 mg/kg): 11145.52 ± 6988.56 cm; Total distance of the spontaneous movement (cm) ([2]; single oral administration 0.09 mg/kg): 7796.38 ± 4382.94 cm
Cc1ccsc1C(=O)N[C@H]1CC[C@H](CCN2CCN(c3nsc4ccccc34)CC2)CC1 [Compound I-11, trans-N-(4-(2-(4-(benzo[d]isothiazol-3-yl)piperazin-1-yl)ethyl)cyclohexyl)-3-methylthienyl-2-carboxamide]						8.32	8.70	8.55	9.43	
CCc1c(C(=O)N[C@H]2CC[C@H](CCN3CCN(c4nsc5ccccc45)CC3)CC2)sc2ccccc12 [Compound I-13, trans-N-(4-(2-(4-(benzo[d]isothiazol-3-yl)piperazin-1-yl)ethyl)cyclohexyl)-3-ethylbenzo[b]thienyl-2-carboxamide]						8.75	8.31	8.39	8.85	
O=C(N[C@H]1CC[C@H](CCN2CCN(c3nsc4ccccc34)CC2)CC1)c1cc2cc([N+](=O)[O-])ccc2[nH]1 [Compound I-15, trans-N-(4-(2-(4-(benzo[d]isothiazol-3-yl)piperazin-1-yl)ethyl)cyclohexyl)-5-nitro-1H-indolyl-2-carboxamide]						7.67	8.58	8.07	8.39	
O=C(N[C@H]1CC[C@@H](CCN2CCN(c3nsc4ccccc34)CC2)CC1)c1cc2ccccc2[nH]1 [Compound I-22, cis-N-(4-(2-(4-(benzo[d]isothiazol-3-yl)piperazin-1-yl)ethyl)cyclohexyl)-1H-indolyl-2-carboxamide]	0.59	0.062	1530	10.15	negative	8.72				
O=S(=O)(N[C@H]1CC[C@H](CCN2CCN(c3nsc4ccccc34)CC2)CC1)c1cccs1 [II-1, trans-N-(4-(2-(4-(benzo[d]isothiazol-3-yl)piperazin-1-yl)ethyl)cyclohexyl)thienyl-2-sulfamide]	0.2	0.074	> 2000		negative	9.37		8.48	10.37	
O=S(=O)(N[C@H]1CC[C@H](CCN2CCN(c3nsc4ccccc34)CC2)CC1)c1cc2ccccc2o1 [II-5, trans-N-(4-(2-(4-(benzo[d]isothiazol-3-yl)piperazin-1-yl)ethyl)cyclohexyl)benzofuryl-2-sulfamide]	0.64	0.088	1100	10.07	negative	9.24		7.97		
O=S(=O)(N[C@H]1CC[C@H](CCN2CCN(c3nsc4ccccc34)CC2)CC1)c1ccc(Cl)o1 [II-8, trans-N-(4-(2-(4-(benzo[d]isothiazol-3-yl)piperazin-1-yl)ethyl)cyclohexyl)-5-chlorofuryl-2-sulfamide]						7.97	8.71	8.40	8.35	
CC(C)COC(=O)N[C@H]1CC[C@H](CCN2CCN(c3nsc4ccccc34)CC2)CC1 [III-3, trans-N-(4-(2-(4-(benzo[d]isothiazol-3-yl)piperazin-1-yl)ethyl)cyclohexyl)isobutylcarbamate]	0.76	0.061			negative					LD50 at 6 days [3, 14]: > 2000 mg/kg
O=C(N[C@H]1CC[C@H](CCN2CCN(c3nsc4ccccc34)CC2)CC1)OCc1ccccc1 [III-11]	0.1	0.092			negative					LD50 at 6 days [3, 14]: 1240 mg/kg
COC(=O)N[C@H]1CC[C@@H](CCN2CCN(c3nsc4ccccc34)CC2)CC1 [III-14, cis-(4-(2-(4-(benzo[d]isothiazol-3-yl)piperazin-1-yl)ethyl)cyclohexyl)methylcarbamate]	0.45	0.058			negative					LD50 at 6 days [3, 14]: 1080 mg/kg
O=C(Nc1ccccc1)N[C@H]1CC[C@H](CCN2CCN(c3nsc4ccccc34)CC2)CC1 [IV-1, trans-1-(4-(2-(4-(benzo[d]isothiazol-3-yl)piperazin-1-yl)ethyl)cyclohexyl)-3-phenylurea]						8.97	9.08	8.44	8.85	
CN(C(=O)N[C@H]1CC[C@H](CCN2CCN(c3nsc4ccccc34)CC2)CC1)c1ccccc1 [IV-6, trans-3-(4-(2-(4-(benzo[d]isothiazol-3-yl)piperazin-1-yl)ethyl)cyclohexyl)-1-methyl-1-phenylurea]	0.48	0.084	1390	9.89	negative			8.34		
O=C(NCc1ccccc1)N[C@H]1CC[C@H](CCN2CCN(c3nsc4ccccc34)CC2)CC1 [IV-11]				9.74	negative		9.04			ED50, inhibition of the total stereotyped behaviors [1, 9]: 0.53 mg/kg; ED50, total distance of the open-field movement ([2]; single oral administration, MK-801-induced model): 0.060 mg/kg; pKi [8]: 8.28; pKi [6]: 8.85
